± gives the expanded uncertainty stated by the source.
Settings: for viscosity / mass density: 102 kPa, Liquid; for viscosity: Concentric cylinders viscometry; for mass density: Vibrating tube method

Structure (SMILES)	viscosity (343.15 K)	mass density (343.15 K)	viscosity (348.15 K)	mass density (348.15 K)	viscosity (353.15 K)	mass density (353.15 K)	viscosity (358.15 K)	mass density (358.15 K)	viscosity (363.15 K)	mass density (363.15 K)	Triple point temperature (Crystal, DSC)	also measured
CCCCn1cc[n+](C)c1.O=[N+]([O-])[O-] [1-butyl-3-methylimidazolium nitrate]	27.29 ± 2.8 mPa·s	1127 ± 2.7 kg/m3	23.4 ± 2.4 mPa·s	1123.9 ± 2.7 kg/m3	20.29 ± 2.1 mPa·s	1120.9 ± 2.7 kg/m3	17.73 ± 1.8 mPa·s	1117.9 ± 2.7 kg/m3	15.61 ± 1.6 mPa·s	1115 ± 2.7 kg/m3		viscosity (303.15 K): 148.1 ± 15 mPa·s; mass density (303.15 K): 1151.9 ± 2.8 kg/m3; viscosity (308.15 K): 112.9 ± 11 mPa·s; mass density (308.15 K): 1148.7 ± 2.8 kg/m3; viscosity (313.15 K): 87.87 ± 8.9 mPa·s; mass density (313.15 K): 1145.5 ± 2.8 kg/m3; viscosity (318.15 K): 69.65 ± 7 mPa·s; mass density (318.15 K): 1142.3 ± 2.8 kg/m3; viscosity (323.15 K): 56.17 ± 5.7 mPa·s; mass density (323.15 K): 1139.2 ± 2.8 kg/m3; viscosity (328.15 K): 45.97 ± 4.6 mPa·s; mass density (328.15 K): 1136.1 ± 2.8 kg/m3; viscosity (333.15 K): 38.11 ± 3.8 mPa·s; mass density (333.15 K): 1133.1 ± 2.8 kg/m3; viscosity (338.15 K): 32.05 ± 3.2 mPa·s; mass density (338.15 K): 1130 ± 2.7 kg/m3; Triple point temperature (Crystal 1, DSC): 308 ± 6 K; Triple point temperature (Crystal 4, DSC): 279 ± 6 K
CCCCn1cc[n+](C)c1.CS(=O)(=O)[O-] [1-butyl-3-methylimidazolium methanesulfonate]			36.51 ± 3.7 mPa·s	1139.4 ± 2.5 kg/m3	30.57 ± 3.1 mPa·s	1136.3 ± 2.5 kg/m3	25.89 ± 2.6 mPa·s	1133.1 ± 2.5 kg/m3	22.16 ± 2.2 mPa·s	1130 ± 2.5 kg/m3	348 ± 6 K	
CCCCn1cc[n+](C)c1.[Cl-] [1-butyl-3-methylimidazolium chloride]	256.7 ± 26 mPa·s	1057.5 ± 2.9 kg/m3	189.4 ± 19 mPa·s	1054.8 ± 2.9 kg/m3	142.7 ± 15 mPa·s	1052 ± 2.8 kg/m3	109.6 ± 11 mPa·s	1049.3 ± 2.8 kg/m3	85.65 ± 8.7 mPa·s	1046.5 ± 2.8 kg/m3	342 ± 6 K	Glass transition temperature (Glass, DSC): -42 ± 6 °C

Source: the NIST ThermoML archive (doi:10.1021/acs.jced.9b00415)
